Experimental data reported in ChEMBL document CHEMBL1148505, “Inhibition of Plasmodium falciparum fatty acid biosynthesis: evaluation of FabG, FabZ, and FabI as drug targets for flavonoids” (J Med Chem, 2006).
Activity calls are given as the source filed them. The calls are words filed in the database; no cut-off is given here.

Experiments:
[1] = molecular target: T1, Enoyl-acyl-carrier protein reductase (Plasmodium falciparum, UniProt Q965D5); experiment: Inhibition of FabI
T1 sequence (Q965D5 whole entry): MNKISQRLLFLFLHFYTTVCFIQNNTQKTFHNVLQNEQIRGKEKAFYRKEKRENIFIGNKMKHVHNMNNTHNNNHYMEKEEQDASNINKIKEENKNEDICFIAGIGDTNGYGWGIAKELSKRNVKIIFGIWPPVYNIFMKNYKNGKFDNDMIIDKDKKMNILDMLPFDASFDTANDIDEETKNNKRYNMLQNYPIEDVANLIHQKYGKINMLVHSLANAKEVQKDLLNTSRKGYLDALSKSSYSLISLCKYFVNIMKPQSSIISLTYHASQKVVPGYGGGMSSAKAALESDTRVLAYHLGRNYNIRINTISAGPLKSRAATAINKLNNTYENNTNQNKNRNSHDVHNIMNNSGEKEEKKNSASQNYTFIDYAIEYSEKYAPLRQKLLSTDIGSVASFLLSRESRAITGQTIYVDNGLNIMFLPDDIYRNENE

Plasmodium falciparum [2] = experiment: Antiplasmodial activity against chloroquine-sensitive Plasmodium falciparum NF54; assay type: functional, organism-based
Fatty acid synthase = molecular target: T2, Fatty acid synthase (Plasmodium falciparum, UniProt Q965D7); experiment: Inhibition of FabZ
T2 sequence (Q965D7 whole entry): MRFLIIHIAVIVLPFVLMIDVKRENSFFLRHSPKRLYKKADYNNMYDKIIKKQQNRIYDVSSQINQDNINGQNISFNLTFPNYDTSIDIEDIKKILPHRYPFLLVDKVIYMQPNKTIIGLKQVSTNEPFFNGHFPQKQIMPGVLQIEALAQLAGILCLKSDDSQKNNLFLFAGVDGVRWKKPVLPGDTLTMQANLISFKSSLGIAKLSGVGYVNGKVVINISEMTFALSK

Plasmodium falciparum [3] = experiment: Antiplasmodial activity against chloroquine-resistant Plasmodium falciparum K1; assay type: functional, organism-based
[4] = molecular target: T3, 3-oxoacyl-acyl-carrier protein reductase (Plasmodium falciparum) (UniProt Q965D6); experiment: Inhibition of FabG at 100 uM
T3 sequence (whole entry): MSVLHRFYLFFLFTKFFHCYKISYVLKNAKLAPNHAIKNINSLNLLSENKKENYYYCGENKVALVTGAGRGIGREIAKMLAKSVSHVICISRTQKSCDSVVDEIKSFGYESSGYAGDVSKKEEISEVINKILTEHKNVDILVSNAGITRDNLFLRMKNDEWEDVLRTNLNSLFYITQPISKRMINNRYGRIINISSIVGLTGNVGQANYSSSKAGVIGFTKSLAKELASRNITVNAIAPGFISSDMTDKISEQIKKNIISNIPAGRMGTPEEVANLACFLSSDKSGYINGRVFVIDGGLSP

[5] = molecular target: T4, Fatty acid synthase (Plasmodium falciparum) (UniProt Q965D7); experiment: Inhibition of FabZ at 100 uM
T4 sequence (whole entry): T2 sequence (Q965D7 whole entry)

[6] = molecular target: T5, Enoyl-acyl-carrier protein reductase (Plasmodium falciparum) (UniProt Q965D5); experiment: Inhibition of FabI at 100 uM
T5 sequence (whole entry): T1 sequence (Q965D5 whole entry)

[7] = molecular target: T6, 3-oxoacyl-acyl-carrier protein reductase (Plasmodium falciparum, UniProt Q965D6); experiment: Inhibition of FabG
T6 sequence (Q965D6 whole entry): T3 sequence (whole entry)

[8] = molecular target: T6, 3-oxoacyl-acyl-carrier protein reductase; experiment: Inhibition of FabG in presence of acetoacetyl-CoA
[9] = molecular target: T6, 3-oxoacyl-acyl-carrier protein reductase; experiment: Inhibition of FabG in presence of NADPH

Row | SMILES | IC50 [1] | IC50 (Plasmodium falciparum [2]) | IC50 (Fatty acid synthase) | IC50 (Plasmodium falciparum [3]) | Activity [4] | Activity [5] | Activity [6] | IC50 [7] | Ki [1] | Ki [8] | Ki [9] | Ki (Fatty acid synthase)
1 | O=C(O[C@@H]1Cc2c(O)cc(O)cc2O[C@@H]1c1cc(O)c(O)c(O)c1)c1cc(O)c(O)c(O)c1 [EPIGALOCATECHIN GALLATE] | 0.2 µM | 25.5 µM | 0.4 µM | 9.9 µM | – | – | – | – | – | – | – | –
2 | Oc1cc(O)c2c(c1)O[C@@H](c1ccc(O)c(O)c1)[C@H](O)C2 [(-)-CATECHIN] | – | > 150 µM | – | – | inactive | inactive | inactive | – | – | – | – | –
3 | O=c1c(O)c(-c2ccc(O)cc2)oc2cc(O)cc(O)c12 [KAEMPFEROL] | 20 µM | 30.4 µM | – | – | – | inactive | – | 4 µM | – | – | – | –
4 | O=c1cc(-c2ccccc2)oc2cc(O)cc(O)c12 [CHRYSIN] | – | 29.8 µM | – | – | – | inactive | inactive | 10 µM | – | – | – | –
5 | O=c1c(O)c(-c2ccccc2)oc2ccc(O)cc12 | – | 36.4 µM | – | – | inactive | inactive | inactive | – | – | – | – | –
6 | O=c1c(O)c(-c2ccccc2)oc2cc(O)ccc12 [3,7-DIHYDROXYFLAVONE] | 10 µM | 49.2 µM | – | – | inactive | inactive | – | – | – | – | – | –
7 | COc1cc(O)c2c(=O)c(OC)c(-c3ccc(OC)c(OC)c3)oc2c1 [RETUSIN] | – | 73.3 µM | – | – | inactive | inactive | inactive | – | – | – | – | –
8 | O=c1c(O)c(-c2cc(O)c(O)c(O)c2)oc2cc(O)cc(O)c12 [MYRICETIN] | 0.4 µM | 57.3 µM | 2 µM | 12.9 µM | – | – | – | 14 µM | – | – | – | –
9 | O=c1c(-c2ccc(O)cc2)coc2cc(O)ccc12 [DAIDZEIN] | – | 104 µM | 30 µM | – | inactive | – | inactive | – | – | – | – | –
10 | O=C(O[C@@H]1Cc2c(O)cc(O)cc2O[C@@H]1c1ccc(O)c(O)c1)c1cc(O)c(O)c(O)c1 [EPICATECHIN GALLATE] | 0.2 µM | 40 µM | 0.4 µM | 11.3 µM | – | – | – | 1 µM | – | – | – | –
11 | Oc1cc(O)c2c(c1)O[C@H](c1ccc(O)c(O)c1)[C@H](O)C2 [(-)-EPICATECHIN] | – | > 150 µM | – | – | inactive | inactive | inactive | – | – | – | – | –
12 | O=C(O[C@@H]1Cc2c(O)cc(O)cc2O[C@H]1c1cc(O)c(O)c(O)c1)c1cc(O)c(O)c(O)c1 [GALLOCATECHIN GALLATE] | 0.5 µM | 40.1 µM | 0.6 µM | 6.2 µM | – | – | – | – | – | – | – | –
13 | O=c1c(O)c(-c2ccc(O)c(O)c2)oc2cc(O)cc(O)c12 [QUERCETIN] | 1.5 µM | 10 µM | 1.5 µM | 8.9 µM | – | – | – | 5.4 µM | – | – | – | –
14 | COc1cc2oc(-c3ccc(O)cc3)cc(=O)c2c(O)c1OC [CIRSIMARITIN] | – | 16.9 µM | – | – | – | inactive | inactive | 70 µM | – | – | – | –
15 | O=c1c(O)c(-c2ccc(O)c(O)c2)oc2cc(O)ccc12 [FISETIN] | 1 µM | 8.2 µM | 2 µM | 6.5 µM | – | – | – | 4.1 µM | – | – | – | –
16 | O=C1C[C@@H](c2ccc(O)cc2)Oc2cc(O)cc(O)c21 [NARINGENIN] | – | 141 µM | – | – | Active | inactive | inactive | – | – | – | – | –
17 | COc1cc(OC)c2c(c1C)O[C@H](c1ccccc1)CC2=O | – | 19.8 µM | 40 µM | – | inactive | – | inactive | – | – | – | – | –
18 | O=C(O[C@@H]1Cc2c(O)cc(O)cc2O[C@H]1c1ccc(O)c(O)c1)c1cc(O)c(O)c(O)c1 [(-)-CATECHINGALLATE] | 0.3 µM | 3.2 µM | 0.4 µM | 0.4 µM | – | – | – | 1 µM | 0.04 µM | 6.4 µM | 2.8 µM | 2.8 µM
19 | Oc1cc(O)c2c(c1)O[C@@H](c1cc(O)c(O)c(O)c1)[C@H](O)C2 [(-)-GALLOCATECHIN] | – | > 150 µM | – | – | inactive | inactive | inactive | – | – | – | – | –

Row | SMILES | IC50 [1] | IC50 (Plasmodium falciparum [2]) | IC50 (Fatty acid synthase) | IC50 (Plasmodium falciparum [3]) | Activity [4] | Activity [5] | Activity [6] | IC50 [7] | Ki [1] | Ki [8] | Ki [9] | Ki (Fatty acid synthase)
20 | O=c1cc(-c2ccccc2)oc2cc(O)ccc12 [7-HYDROXYFLAVONE] | – | 65.5 µM | 20 µM | – | inactive | – | inactive | – | – | – | – | –
21 | COc1ccc(-c2cc(=O)c3c(O)c(O)c(OC)cc3o2)cc1 [LADANEIN] | – | 9 µM | – | – | inactive | inactive | inactive | – | – | – | – | –
22 | O=c1c(O)c(-c2ccccc2)oc2cc(O)cc(O)c12 [GALANGIN] | – | 39.4 µM | – | – | – | inactive | inactive | 100 µM | – | – | – | –
23 | O=c1cc(-c2ccccc2)oc2cccc(O)c12 [5-HYDROXYFLAVONE] | – | 65.9 µM | – | – | inactive | inactive | inactive | – | – | – | – | –
24 | Oc1cc(O)c2c(c1)O[C@H](c1ccc(O)c(O)c1)[C@@H](O)C2 [CIANIDANOL] | – | 144 µM | – | – | inactive | inactive | inactive | – | – | – | – | –
25 | COc1cc(O)c2c(=O)cc(-c3ccc(O)cc3)oc2c1 [GENKWANIN] | – | 111 µM | – | – | inactive | inactive | inactive | – | – | – | – | –
26 | COc1cc2c(c(O)c1OC)C(=O)C[C@@H](c1ccc(O)cc1)O2 | – | 8.8 µM | – | – | inactive | inactive | inactive | – | – | – | – | –
27 | O=c1cc(-c2ccccc2)oc2ccc(O)cc12 [6-HYDROXYFLAVONE] | – | 5.3 µM | 30 µM | – | inactive | – | inactive | – | – | – | – | –
28 | COc1ccc(-c2coc3cc(O)cc(O)c3c2=O)cc1 [BIOCHANIN] | – | 34.3 µM | 8 µM | – | inactive | – | inactive | – | – | – | – | –
29 | O=c1cc(-c2ccc(O)c(O)c2)oc2cc(O)cc(O)c12 [LUTEOLIN] | 2 µM | 10.7 µM | 5 µM | 9.6 µM | – | – | – | 4 µM | 2.1 µM | 1.8 µM | 0.8 µM | 11.5 µM
30 | O=c1cc(-c2ccccc2)oc2ccccc12 [FLAVONE] | – | 60.8 µM | – | – | inactive | inactive | inactive | – | – | – | – | –
31 | Oc1cc(O)c2c(c1)O[C@@H](c1ccc(O)c(O)c1)[C@@H](O)C2 [(+)-EPICATECHIN] | – | > 150 µM | – | – | inactive | inactive | inactive | – | – | – | – | –
32 | O=c1c(-c2ccc(O)cc2)coc2cc(O)cc(O)c12 [GENISTEIN] | – | 38.2 µM | 7 µM | – | inactive | – | inactive | – | – | – | – | –
33 | O=c1c(O)c(-c2ccccc2)oc2ccccc12 [FLAVONOL] | – | 24 µM | – | – | inactive | inactive | inactive | – | – | – | – | –
34 | Oc1cc(O)c2c(c1)O[C@H](c1cc(O)c(O)c(O)c1)[C@H](O)C2 [EPIGALLOCATECHIN] | – | > 150 µM | – | – | inactive | inactive | inactive | – | – | – | – | –
35 | O=c1cc(-c2ccc(O)cc2)oc2cc(O)cc(O)c12 [APIGENIN] | 50 µM | 17.4 µM | – | – | inactive | inactive | – | – | – | – | – | –
36 | COc1ccc2c(=O)cc(-c3ccccc3)oc2c1OC | – | 40.9 µM | – | – | inactive | inactive | inactive | – | – | – | – | –
37 | O=c1c(O)c(-c2ccc(O)cc2O)oc2cc(O)cc(O)c12 [MORIN] | 5 µM | 110 µM | 8 µM | 16.1 µM | – | – | – | 2.3 µM | – | – | – | –
38 | COc1cc(-c2oc3cc(O)cc(O)c3c(=O)c2O)ccc1O [ISORHAMNETIN] | 5 µM | 14.7 µM | – | – | – | inactive | – | 8.3 µM | – | – | – | –
